From ChEMBL document CHEMBL1177696, “Heat shock protein 70 (hsp70) as an emerging drug target” (J Med Chem, 2010)
≈ marks a conversion by molar mass, not a printed value.

Experiments:
[1] = system: Escherichia coli; experiment: Inhibition of Escherichia coli DNAK at 150 uM
[2] = system: Escherichia coli; experiment: Antibacterial activity against Escherichia coli; format: functional
[3] = Binding affinity to Escherichia coli DNAK substrate binding domain by isothermal titration assay
[4] = system: Yersinia pseudotuberculosis; experiment: Antibacterial activity against Yersinia pseudotuberculosis; format: functional
[5] = system: Saccharomyces cerevisiae; experiment: Induction of ATPase activity of yeast cytosolic HSC70
[6] = Terminal half life in renal transplant patient; format: ADME, organism-based; settings: human, in vivo; read-out: beta t1/2 (converted)
[7] = Binding affinity to HSP90 EEVD domain by mass spectroscopy
[8] = Alpha half life in renal transplant patient; format: ADME, organism-based; settings: human, in vivo; read-out: alphat1/2
[9] = system: L1210; experiment: Antitumor activity against mouse L1210 cells xenografted in CDF1 mouse assessed as log reduction in tumor burden; format: functional
[10] = molecular target: Heat shock cognate 71 kDa protein (Homo sapiens) (UniProt P11142); experiment: Binding affinity to HSC70 EEVD domain by mass spectroscopy
[11] = system: Escherichia coli; experiment: Ratio of ciprofloxacin MIC to compound MIC for Escherichia coli; format: functional
[12] = Antiproliferative activity against human breast cancer cells; format: functional, cell-based; settings: Cancer cell lines
[13] = Antiproliferative activity against human colon cancer cells; format: functional, cell-based; settings: Cancer cell lines
[14] = Antiproliferative activity against human bladder cancer cells; format: functional, cell-based; settings: Cancer cell lines
[15] = Inhibition of APIase activity of Escherichia coli MC4100 DNAK
[16] = system: Escherichia coli; experiment: Antibacterial activity against Escherichia coli MC4100; format: functional
[17] = Inhibition of Escherichia coli DNAK by luciferase-refolding assay
[18] = Cytotoxicity against human erythrocytes assessed as hemolysis after 30 mins by spectrometric analysis; format: cell-based; settings: Erythrocyte, 0.5 h

Sequence of Heat shock cognate 71 kDa protein (Homo sapiens) (P11142 2-646 limits assumed): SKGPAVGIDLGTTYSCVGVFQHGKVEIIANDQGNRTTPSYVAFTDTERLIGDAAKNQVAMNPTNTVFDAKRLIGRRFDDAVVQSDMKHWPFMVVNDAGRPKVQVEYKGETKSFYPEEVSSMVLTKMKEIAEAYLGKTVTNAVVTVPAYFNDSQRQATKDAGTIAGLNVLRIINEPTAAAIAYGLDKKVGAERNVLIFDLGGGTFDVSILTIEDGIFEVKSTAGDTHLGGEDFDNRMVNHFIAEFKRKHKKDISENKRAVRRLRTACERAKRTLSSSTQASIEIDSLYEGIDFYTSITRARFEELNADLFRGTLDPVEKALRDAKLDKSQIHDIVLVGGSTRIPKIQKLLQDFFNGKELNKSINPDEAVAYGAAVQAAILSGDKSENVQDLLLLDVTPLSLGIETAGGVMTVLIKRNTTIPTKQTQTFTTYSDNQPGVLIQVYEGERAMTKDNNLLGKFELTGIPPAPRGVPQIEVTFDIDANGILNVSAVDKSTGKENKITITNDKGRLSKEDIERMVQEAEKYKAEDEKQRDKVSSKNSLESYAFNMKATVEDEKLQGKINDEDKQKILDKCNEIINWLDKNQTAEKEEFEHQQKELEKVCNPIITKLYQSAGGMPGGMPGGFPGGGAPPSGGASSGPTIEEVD

## CC1=C(C(=O)OCc2ccccc2)C(c2ccc(C3CCCCC3)cc2)NC(=O)N1CCCCCC(=O)O (configuration not stated)
[1]
  inhibition: 80%

## O=C(NCc1ccccc1F)c1cccs1
[2]
  MIC: 10 µM (≈ 2.35 µg/mL)
[3]
  Kd: 70 µM
[4]
  MIC: 10 µM (≈ 2.35 µg/mL)

## O=C(Nc1ccc2[nH]ccc2c1)c1cccs1
[2]
  MIC: 10 µM (≈ 2.42 µg/mL)
[3]
  Kd: 12.7 µM
[4]
  MIC: 10 µM (≈ 2.42 µg/mL)

## N=C(N)NCCCCCCC(=O)N[C@@H](O)C(=O)NCCCCNCCCN
[5]
  Activity: 20%
[6]
  half-life: 120 min
[7]
  Activity: 5 µM
[8]
  half-life: 5 min
[9]
  FC: 4
[10]
  Activity: 5 µM

## H-GRPDKPRPYLPRPRPPRPVRI-OH
[11]
  Ratio: 4

## CCn1c(=O)/c(=C2\Sc3ccccc3N2C)s/c1=C\c1cccc[n+]1CC
[12]
  IC50: 1000 nM
[13]
  IC50: 1000 nM
[14]
  IC50: 1000 nM

## CCCCCCCCCCCCCCC(=O)NCc1ccc(C(=O)N[C@H](C(=O)O)[C@@H](C)CC)cc1
[15]
  IC50: 5 µM
[16]
  MIC: 380 µg/mL (≈ 778 µM)

## COC(=O)C1=C(CCc2ccccc2)NC(=O)NC1c1ccc([N+](=O)[O-])cc1 (configuration not stated)
[17]
  EC50: 4 µM

## CCCCCCCCCCCCCCCCC(=O)NCc1ccc(C(=O)N[C@H](C(=O)O)[C@@H](C)CC)cc1
[15]
  IC50: 1.2 µM
[16]
  MIC: 180 µg/mL (≈ 348 µM)

## CCCC/C=C\CCCCCCCCC(=O)NCc1ccc(C(=O)N[C@H](C(=O)O)[C@@H](C)CC)cc1
[15]
  IC50: 36 µM
[18]
  EC50: > 1500 µg/mL
[16]
  MIC: 280 µg/mL (≈ 575 µM)

## Cc1ccc(NC(=O)c2ccc([N+](=O)[O-])o2)cc1
[2]
  MIC: 10 µM (≈ 2.46 µg/mL)
[4]
  MIC: < 12 µM
